Earlier results, collected in patent US8735422B2, “Cationic pharmaceutically active ingredient containing composition, and methods for manufacturing and using” (Skinvisible Pharmaceuticals, Inc., priority 2009, dated 2014).
Read-outs that look alike come from different tables or passages of the source.

What was measured:
[1] = in vivo
[2] = Table 4, value used for the calculation

Row | pK1 (Table 1) | Compound | other results
1 | 4.76 | CC(=O)O [Acetic Acid] | 
2 | 4.5 | O=C(O)CCCCCCCCCCC(=O)O [Dodecandioic] | pK2 (Table 1): 4.5
3 | 5.3 | CCCCCCCCCCCC(=O)O [Lauric Acid] | pK: 5.3; pK [2]: 5.30
4 | 7.0 | CCCCCCCCCCCCCCCCCC(=O)O [Stearic Acid] | 

Continued, compound first:

Row | Compound | pK1 (Table 1) | other results
5 | O=C(O)c1ccccc1 [Benzoic Acid] | 4.21 | 
6 | O=C(O)[C@H](O)[C@@H](O)[C@H](O)[C@H](O)CO [Gluconic Acid] | 3.86 | 
7 | CC(C)Cn1cnc2c(N)nc3ccccc3c21 [Imiquimod, reference compound] |  | pK [2]: 4.49
8 | Poly(vinylpyrrolidone/1-eicosene) [PVPE] |  | dermal toxicity [1]: no demonstrable dermal toxicity
9 | Poly(vinylpyrrolidone/1-hexadecene) [PVPH] |  | dermal toxicity [1]: no demonstrable dermal toxicity
